Measured values reported in paper PMC8147254, “Efflux at the Blood-Brain Barrier Reduces the Cerebral Exposure to Ochratoxin A, Ochratoxin α, Citrinin and Dihydrocitrinone” (Toxins, 2021).

Legend:
PBCEC [1] = conditions: 10 µM
PBCEC [2] = format: cell-based, porcine; conditions: levels higher than 100 µM; data not shown
Experimental: In order to study the barrier integrity PBCEC were incubated with 1 µM OTA, OTα, CIT and DHCIT in the apical compartment (blood side) of Transwell® filter inserts for 48 h. The TEER values as well as the electrical capacitance (cCL) were monitored by cellular impedance spectroscopy (Figure 4A,B). As a negative control the permeability of […] was measured after 48 h. Sucrose is not transported by any cellular transport protein and represents a marker for an intact BBB.
For barrier integrity, TEER values were monitored using a cellZscope® cellular impedance spectrometer (nanoAnalytics, Münster, Germany). […]. The detailed protocols can be found in the Supplementary Materials. […]
6.1. Cellular impedance spectroscopy
To monitor the barrier integrity during all transfer studies, the transendothelial electrical resistance (TEER) was measured with a cellZscope® cellular impedance spectrometer (nanoAnalytics, Münster, Germany) using a module suitable for 24 Transwell® filter inserts. After the mycotoxins were added to the cell culture medium, TEER was analyzed until the end of the experiment (48 h). The waiting time after each run was set to 10 min, resulting in 60 scans per 48 h.
The results were normalized to the TEER values of the first impedance spectrum of each well. Data processing was performed using the cellZscope 1.3.4 software (nanoAnalytics, Münster, Germany).

CC(=O)OC[C@]12C[C@H](OC(=O)CC(C)C)C(C)=C[C@H]1O[C@@H]1[C@H](O)[C@@H](OC(C)=O)[C@@]2(C)[C@]12CO2 [T-2 toxin, reference compound]
cellular viability (dehydrogenase activity) compared to the negative control (PBCEC [1]): 2 ± 1%

CCCN(CCC)S(=O)(=O)c1ccc(C(=O)O)cc1 [probenecid, 4-(N,N-dipropylaminosulfonyl)benzoic acid, reference compound]
effect on PBCEC barrier integrity (PBCEC [2]): impaired the PBCEC barrier integrity
